Experimental data: patent publication US20050209278A1, “Piperidinyl- and piperazinyl-sulfonylmethyl hydroxamic acids and their use as protease inhibitors” (priority 2002, published 2005)

Target: T1, MMP-2 (Homo sapiens, UniProt P08253)
T1 construct: made in house; host or cells: MMP-2-transfected p2AHT2 cells
T1 sequence (P08253 110-660): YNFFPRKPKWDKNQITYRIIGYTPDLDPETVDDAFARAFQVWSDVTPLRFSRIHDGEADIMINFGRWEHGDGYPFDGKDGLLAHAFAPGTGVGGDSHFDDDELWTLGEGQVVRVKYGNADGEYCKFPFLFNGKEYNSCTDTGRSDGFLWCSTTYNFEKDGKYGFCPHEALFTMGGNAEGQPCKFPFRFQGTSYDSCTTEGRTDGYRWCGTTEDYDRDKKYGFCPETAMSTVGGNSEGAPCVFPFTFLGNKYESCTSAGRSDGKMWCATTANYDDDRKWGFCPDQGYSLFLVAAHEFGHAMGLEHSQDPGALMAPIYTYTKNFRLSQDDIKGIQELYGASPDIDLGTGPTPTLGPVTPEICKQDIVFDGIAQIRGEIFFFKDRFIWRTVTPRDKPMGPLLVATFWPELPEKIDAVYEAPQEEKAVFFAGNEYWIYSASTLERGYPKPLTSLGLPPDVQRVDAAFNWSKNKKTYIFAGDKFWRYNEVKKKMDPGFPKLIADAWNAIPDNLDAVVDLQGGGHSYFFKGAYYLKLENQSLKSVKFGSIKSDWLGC
Test: In vitro MMP inhibition, Ki determination (fluorogenic substrate II)
Format: biochemical
Details: value outside parentheses; read-out: MMP-2 Ki

| Ki | Structure (SMILES) |
| --- | --- |
| 67.1 nM | CS(=O)(=O)c1ccc(N2CCN(S(=O)(=O)C3(C(=O)NO)CCOCC3)CC2)cc1 [Example 300] |
| 0.88 nM | CCCCOc1ccc(N2CCN(S(=O)(=O)C3(C(=O)NO)CCN(C4CC4)CC3)CC2)cc1 [Example 301] |
| 1.68 nM | C#CCN1CCC(C(=O)NO)(S(=O)(=O)N2CCN(c3ccc(OCCCC)cc3)CC2)CC1 [Example 303] |
| 0.407 nM | CCCCCc1ccc(C2CCN(S(=O)(=O)C3(C(=O)NO)CCOCC3)CC2)nc1 [Example 305] |
| 0.444 nM | O=C(NO)C1(S(=O)(=O)N2CCC(c3ccc(Br)cn3)CC2)CCOCC1 [Example 306] |
| 0.505 nM | CCCCc1ccc(C2CCN(S(=O)(=O)C3(C(=O)NO)CCOCC3)CC2)nc1 [Example 307] |
| 6.36 nM | O=C(NO)C1(S(=O)(=O)N2CCC(c3ccc(-c4ccc(F)cc4F)cn3)CC2)CCOCC1 [Example 308] |
| 0.328 nM | COCCN1CCC(C(=O)NO)(S(=O)(=O)N2CCC(c3ccc(CCC(F)(F)F)cc3)CC2)CC1 [Example 309] |
| 0.919 nM | COCCN1CCC(C(=O)NO)(S(=O)(=O)N2CCC(c3ccc(CCCC(F)(F)F)cc3)CC2)CC1 [Example 310] |
| 103 nM | COCCN1CCC(C(=O)NO)(S(=O)(=O)N2CCC(c3ncc(CC(C)C)s3)CC2)CC1 [Example 311] |
| 0.52 nM | COCCN1CCC(C(=O)NO)(S(=O)(=O)N2CCC(c3ccc(CCC(F)(F)C(F)(F)F)cc3)CC2)CC1 [Example 312] |
